Active and inactive are the calls of the source. The rule behind the calls is not given here.

The assay concerns the target Influenza A virus M2 proton channel (A/TW/4845/1999 H1N1). As to the kind of experiment: NMR binding screen, influenza A virus M2 proton channel, Kd (AID 1549). The note with it: M2 protein.
For `O=C(NCC1CCNCC1)c1ccncc1`, the Kd (usually the free concentration of one partner at which half of the binding sites on the other are occupied at equilibrium, for simple one-to-one binding) was > 4 mM (inactive).

On to `COc1ccc2cc1Oc1ccc(cc1)C[C@H]1c3c(cc4c(c3Oc3cc5c(cc3OC)CCN(C)[C@@H]5C2)OCO4)CCN1C`, for which the Kd was > 4 mM (inactive).

As for `CCc1ccc(/C=N/n2cnnc2)cc1`, the Kd is > 4 mM (inactive).

On to `OCc1ccccc1N1CCOCC1`, for which the Kd was > 4 mM (inactive).

`Cc1nnc(SCc2ccc(F)cc2)s1`: the Kd is > 4 mM (inactive).

In the case of `N/N=C1\CCCc2c1no[n+]2[O-]`, the Kd was > 4 mM (inactive).

For the molecule `CNC(=O)C(=O)Nc1cccc(Cl)c1`, the Kd was > 4 mM (inactive).

Take `Cc1cc(N2CCCC2=O)c(N)cc1N`: the Kd is > 4 mM (inactive).

Regarding `COc1nc(-c2ccccc2)ccc1-c1noc(C)n1`, the Kd is > 4 mM (inactive).

For the molecule `CC(=O)NN1C(=O)c2cccc3cccc(c23)C1=O`, the Kd was > 4 mM (inactive).

For the molecule `Cc1cc(N)n(C2CCOC(C)(C)C2)n1` (configuration not stated), the Kd was > 4 mM (inactive).

`O=[n+]1c(CO)c(CO)n([O-])c2ccccc21`: the Kd was > 4 mM (inactive).

Take `O=C1c2ccccc2C(=O)c2c(O)c(O)cc(O)c21`: the Kd is > 4 mM (inactive).

On to `CCOc1ccc(-c2n[nH]c(=S)n2C)cc1`, for which the Kd is > 4 mM (inactive).

With `CC(=O)Nc1c(C)n(C)n(-c2ccccc2)c1=O`, the Kd was > 4 mM (inactive).

With `Cn1c(=O)[nH]c(=O)c2nsnc21`, the Kd is > 4 mM (inactive).

With `NC(=O)CSc1nc2[nH]ncc2c(=O)[nH]1`, the Kd is > 4 mM (inactive).

Consider `O=c1[nH]nc(Cc2ccncc2)c2ccccc12`, for which the Kd was > 4 mM (inactive).

With `Nc1ccc(-n2cccc2)cc1`, the Kd was > 4 mM (inactive).

In the case of `CC(CCC(=O)O)[C@H]1CCC2C3CC[C@@H]4CCCC[C@]4(C)C3CC[C@@]21C` (some centres not stated), the Kd is > 4 mM (inactive).

Consider `CCN1CCN(c2ncnc3c2nnn3C)CC1`, for which the Kd was > 4 mM (inactive).

Regarding `C=C1CCC2[C@](C)(CO)[C@H](O)CC[C@@]2(C)[C@@H]1C/C=C1/C(=O)OC[C@H]1O` (some centres not stated), the Kd was > 4 mM (inactive).

For the molecule `CSc1ncc(C(=O)O)n1Cc1ccccc1`, the Kd was > 4 mM (inactive).

With `C[C@@H]1CC[C@@]23CCC4(C)[C@@](C=CC5[C@@]6(C)CC[C@H](O)C(C)(C)C6CC[C@]54C)(OC2=O)C3[C@H]1C` (some centres not stated), the Kd was > 4 mM (inactive).

Regarding `CN1CCC(NC(=O)c2c(F)cccc2Cl)CC1`, the Kd is > 4 mM (inactive).

Regarding `O=C(/C=C(\O)c1ccccc1)c1ccccc1O`, the Kd is > 4 mM (inactive).

Consider `O=C(NCCO)c1cc2ccccc2c(=O)s1`, for which the Kd was > 4 mM (inactive).

For the molecule `COc1cccc(OC)c1C(=O)N1CCOCC1`, the Kd is > 4 mM (inactive).

Consider `COc1ccc(-c2nc(N)n(C(C)=O)n2)cc1`, for which the Kd was > 4 mM (inactive).

Consider `COc1cc(O)c2c(c1)C(=O)c1cc(C)cc(O)c1C2=O`, for which the Kd is > 4 mM (inactive).

For `Nc1c(/C=C2\C=Nc3ccccc32)c(=O)nc2scnn12`, the Kd was > 4 mM (inactive).

In the case of `O=C(O)c1cc(F)cc2c1OCOC2`, the Kd is > 4 mM (inactive).

Turning to `O=C1c2ccccc2C(=O)c2c1ccc(O)c2O`, the Kd was > 4 mM (inactive).

With `O=C(Nn1c(=S)[nH]c2ccccc2c1=O)c1ccncc1`, the Kd was > 4 mM (inactive).

As to `COc1ccc2c(c1)C(NC(C)=O)C(=O)N2C` (configuration not stated), the Kd is > 4 mM (inactive).

As to `O=C(Nc1ccccc1F)c1ccncc1`, the Kd is > 4 mM (inactive).

As to `CN(C)N1C(=O)c2ccccc2C1=O`, the Kd was > 4 mM (inactive).

For the molecule `Cc1nc(-c2ccccc2)ncc1CO`, the Kd is > 4 mM (inactive).

Turning to `O=[N+]([O-])c1cccc2c1nnn2C(CO)OCCO` (configuration not stated), the Kd is > 4 mM (inactive).

Turning to `O=c1[nH]c(O)c(C=NC2CC2)c(=O)[nH]1`, the Kd is > 4 mM (inactive).

`CC(=O)c1ccc[nH]1`: the Kd was > 4 mM (inactive).

As to `Cn1ccc(C(=O)NC(=S)NN2CCOCC2)n1`, the Kd was > 4 mM (inactive).

Turning to `Cn1c(=O)c2ccccc2n(Cc2ccccc2F)c1=O`, the Kd is > 4 mM (inactive).

Consider `Cc1ccc(C)n1/N=C1\NC(=O)CS1`, for which the Kd was > 4 mM (inactive).

`Cn1nc(-c2cccs2)cc1N`: the Kd was > 4 mM (inactive).

Consider `CSc1nn(-c2ccccc2)c(N)c1C#N`, for which the Kd is > 4 mM (inactive).

On to `O=C(O)CCCCCCCC(=O)O`, for which the Kd is > 4 mM (inactive).

With `COc1ccccc1NC(=O)c1cc[n+]([O-])cc1`, the Kd was > 4 mM (inactive).

For `CC12CCCC(O)(C1)C1CC(C)(C)C1CC2` (configuration not stated), the Kd was > 4 mM (inactive).

Consider `COc1cc2[nH]c(=S)n(C)c(=O)c2cc1OC`, for which the Kd is > 4 mM (inactive).

Turning to `COC(=O)c1ccc2nc[nH]c2c1`, the Kd is > 4 mM (inactive).

With `O=C(O)c1cc(=O)[nH]c2ccccc12`, the Kd was > 4 mM (inactive).

For `NC(=O)c1ccsc1NC(=O)c1ccccc1[N+](=O)[O-]`, the Kd is > 4 mM (inactive).

With `O=C1Cn2c(nc3ccccc32)N1c1ccccc1F`, the Kd is > 4 mM (inactive).

Take `COc1c(OC)c2occc2c2oc(=O)ccc12`: the Kd is > 4 mM (inactive).

Turning to `C=CCSCC=C`, the Kd was > 4 mM (inactive).

As to `COC(=O)c1scc(S(C)(=O)=O)c1-n1cccc1`, the Kd was > 4 mM (inactive).

For the molecule `CCOC(=O)c1cc2ccccc2oc1=O`, the Kd is > 4 mM (inactive).

For the molecule `O=[N+]([O-])c1cccc(CN2CCC(O)CC2)c1`, the Kd is > 4 mM (inactive).

On to `O=C(c1ccc2c(c1)OCO2)N1CCC2(CC1)OCCO2`, for which the Kd is > 4 mM (inactive).

Regarding `[O-][n+]1cc(O)c(CN2CCOCC2)c2ccccc21`, the Kd is > 4 mM (inactive).

Turning to `NNc1ncnc2sccc12`, the Kd is > 4 mM (inactive).

Consider `CSc1nnc2c(n1)OC(C)=Nc1ccccc1-2`, for which the Kd is > 4 mM (inactive).

With `Cc1cc(C)n2c(SCc3c(C)noc3C)nnc2n1`, the Kd was > 4 mM (inactive).

Consider `C=C[C@H]1CN2CC[C@H]1C[C@@H]2[C@H](O)c1ccnc2ccccc12`, for which the Kd is > 4 mM (inactive).

Regarding `O=[N+]([O-])c1cccc(-c2nnco2)c1`, the Kd was > 4 mM (inactive).

Consider `O=c1c2ccccc2[nH]c2ncccc12`, for which the Kd is > 4 mM (inactive).

For `Cc1cc(C)c(C(N)=O)c(=S)[nH]1`, the Kd was > 4 mM (inactive).

Take `Oc1cc(O)cc(/C=C/c2ccccc2)c1`: the Kd is > 4 mM (inactive).

Turning to `S=c1nc2c(n[nH]1)[nH]c1ccccc12`, the Kd was > 4 mM (inactive).

Regarding `Nc1cncc(C(=O)O)c1`, the Kd was > 4 mM (inactive).

For `CC(=O)Nc1sccc1C(=O)NC(N)=O`, the Kd was > 4 mM (inactive).

On to `CC(C)=CCc1c(O)cc2occ(-c3ccc4c(c3)OCO4)c(=O)c2c1O`, for which the Kd was > 4 mM (inactive).

For `CN(C)C(=O)Nc1ccc(F)cc1F`, the Kd is > 4 mM (inactive).

For `Cc1c(C(=O)Nc2cnccn2)oc2ccccc12`, the Kd is > 4 mM (inactive).

Turning to `O=C(NCc1cccc(Cl)c1)c1cccnc1`, the Kd was > 4 mM (inactive).

Turning to `O=C(Nc1ccc2c(c1)OCO2)c1c(F)cccc1F`, the Kd was > 4 mM (inactive).

`Nc1ccccc1N=C1CNC(=O)C1`: the Kd is > 4 mM (inactive).

For the molecule `NC(=O)C1CCN(C2CC(=O)NC2=O)CC1` (configuration not stated), the Kd was > 4 mM (inactive).

`CC(C)(C)C(=O)Nc1ncc(C(F)(F)F)cc1Cl`: the Kd was > 4 mM (inactive).

`CCOc1ccc(C(=O)c2ccc(O)c(O)c2O)cc1`: the Kd was > 4 mM (inactive).

As to `O=C(Cc1c(F)cccc1Cl)Nc1ccncc1`, the Kd is > 4 mM (inactive).

`O=c1cc(-c2ccc(O)cc2)oc2cc(O[C@@H]3O[C@H](CO)[C@@H](O)[C@H](O)[C@H]3O[C@@H]3OC[C@](O)(CO)[C@H]3O)cc(O)c12`: the Kd is > 4 mM (inactive).

`CC(=O)Nc1ccccc1-c1ccccc1NC(C)=O`: the Kd is > 4 mM (inactive).

Consider `Cc1ccc(/C=C/C(=O)O)cc1S(=O)(=O)NCCO`, for which the Kd is > 4 mM (inactive).

Take `Cc1scc(C(=O)Nc2ccon2)c1-c1ccccc1`: the Kd is > 4 mM (inactive).

In the case of `CC(=O)Nc1sc(C)c(C)c1C(N)=O`, the Kd is > 4 mM (inactive).

Consider `COc1cc(-c2csc(C)n2)ccc1O`, for which the Kd is > 4 mM (inactive).

Take `C=C1C2CC[C@H]3[C@]4(C)C[C@H](OC5OC(CO)C(OS(=O)(=O)O)C(OS(=O)(=O)O)C5OC(=O)CC(C)C)C[C@@H](C(=O)O)[C@H]4CC[C@]3(C2)[C@H]1O` (some centres not stated): the Kd is > 4 mM (inactive).

For `Cc1cc(=O)n(C(N)=S)[nH]1`, the Kd was > 4 mM (inactive).

Consider `CN(C)Cc1nc2c([nH]1)c(=O)[nH]c(=O)n2C`, for which the Kd is > 4 mM (inactive).

For the molecule `COc1cc(/C=C/C(=O)O)cc(OC)c1OC`, the Kd was > 4 mM (inactive).

Take `O=c1c2ccccc2oc2ccccc12`: the Kd was > 4 mM (inactive).

Regarding `COc1ccc(-c2nnsc2N)cc1`, the Kd was > 4 mM (inactive).

Consider `C=CC1=C(C)/C(=C/c2[nH]c(Cc3[nH]c(/C=C4\NC(=O)C(C)=C4C=C)c(C)c3CCC(=O)O)c(CCC(=O)O)c2C)NC1=O`, for which the Kd is > 4 mM (inactive).

In the case of `NCc1ccc(-n2cccn2)cc1`, the Kd is > 4 mM (inactive).

Turning to `c1ccc(-n2ncc3c(NCc4ccco4)ncnc32)cc1`, the Kd was > 4 mM (inactive).

As for `CC(=O)NC12CC3CC(C)(C1)CC(NC(C)=O)(C3)C2`, the Kd is > 4 mM (inactive).

On to `CC(=O)O[C@@H]1CC2C(C)(C)[C@H](O)C=C[C@]2(C)C2CC[C@]3(C)C(=CC(=O)O[C@H]3c3ccoc3)[C@@]21C` (some centres not stated), for which the Kd is > 4 mM (inactive).

In the case of `Fc1cccc(Cl)c1CN1CCCNCC1`, the Kd is > 4 mM (inactive).

As for `Cc1nc(-c2ccccc2)ncc1C(=O)O`, the Kd was > 4 mM (inactive).

In the case of `Cc1sc2nc(-c3ccco3)oc(=O)c2c1C`, the Kd is > 4 mM (inactive).

(Values after PubChem BioAssay AID1549 (Sanford-Burnham Center for Chemical Genomics, 2009).)
